Positions of bridges follow the written chain, without caps; N, C: chain ends. Non-standard residues stand in square brackets, D forms with d. Residues, ends and D or L forms follow the SMILES beside them. dLys(iPr) = CC(C)NCCCC[C@@H](N)C(=O)O; Lys(iPr) = CC(C)NCCCC[C@H](N)C(=O)O; Orn(iPr) = CC(C)NCCC[C@H](N)C(=O)O; Ac3c = NC1(C(=O)O)CC1
Tests used:
Assay type in all cases: cell-based
CXCR4 receptor = molecular target: T1, CXCR4 receptor (Homo sapiens, UniProt P61073); test: Chemotactic assay (cell migration assay), Namalwa cells, SDF-1 gradient
T1 construct: CXCR4 natively expressing non-adherent cells; endogenous in cells; host or cells: Namalwa cells (ATCC CRL-1432)
Method: (§1) Namalwa cells (CXCR4 natively expressing non-adherent cells, ATCC CRL-1432) were cultured in RPM11640 plus 10% FBS, and pen/strept. HELA cells were maintained in RPMI1640 plus 10% FBS, pen/strept and 2 mM L-glutamine. Cos-7 cells were grown in DMEM medium with […] glucose supplemented with 10% FCS, pen/strept and 2 mM L-glutamine. All cell lines were grown at 37° C. at 5% CO2. Cell media, media supplements, PBS-buffer, HEPES, antibiotic/antimycotic, pen/strept, non essential amino acid, L-glutamine, β-mercaptoethanol and sera were purchased from Gibco (Pailsey, UK). All fine chemicals were supplied by Merck (Darmstadt, Germany).
The chemotactic response of Namalwa cells (ATCC CRL-1432) to a gradient of stromal cell-derived factor 1α (SDF-1) was measured using a modified Boyden chamber chemotaxis system (ChemoTx; Neuroprobe). […] Migrated cells were transferred using a “funnel” adaptor to a receiving 96-well plate and the cell number was determined by using the CyQuant™ NF cell proliferation assay (Invitrogen) based on the measurement of cellular DNA content via fluorescent dye binding. […] After incubation for 0.5 h at room temperature the plate was sealed and the fluorescence intensity of each sample was measured by using a Wallac 1420 VICTOR^2™ plate reader (PerkinElmer) with excitation at 485 nm and emission detection at 535 nm. […]

in vitro = test: in vitro
Method: as §1
The cytotoxicity of the peptides to HELA cells (Acc57) and COS-7 cells (CRL-1651) was determined using the MTT reduction assay (T. Mossman, J. Immunol. Meth. 1983, 65, 55-63; M. V. Berridge, A. S. Tan, Arch. Biochem. Biophys. 1993, 303, 474-482). Briefly, the method was as follows: 4000 HELA cells/well and 3400 COS-7 cells/well were seeded and grown in 96-well microtiter plates for 24 h at 37° C. at 5% CO2. Thereafter, time zero (Tz) was determined by MTT reduction (see below). The supernatant of the remaining wells was discarded, and fresh medium and compounds in serial dilutions (12.5, 25 and 50 μM, triplicates; 0 μM, blank) were pipetted into the wells. After incubation of the cells for 48 h at 37° C. at 5% CO2 the supernatant was discarded again and 100 μL MTT reagent (0.5 mg/mL in RPMI1640 and DMEM, respectively)/well was added. Following incubation at 37° C. for 2-4 h the media were aspirated and the cells were spiked (100 μL isopropanol/well). The absorbance of the solubilized formazan was measured at 595 nm (OD595peptide). For each concentration averages were calculated from triplicates. The percentage of growth was calculated as follows: (OD595peptide−OD595Tz)/(OD595blank−OD595Tz)×100%. The GI50 (Growth Inhibition) concentrations were calculated for each peptide by using a trend line function for the concentrations (50, 25, 12.5 and 0 μM), the corresponding percentages and the value 50, (=TREND (C50:C0,%50:%0, 50).

[1] = test system: human red blood cells (hRBC); details: red cells of human, 1 h
Method: The peptides were tested for their hemolytic activity against human red blood cells (hRBC). Fresh hRBC were washed four times with phosphate buffered saline (PBS) and centrifuged for 10 min at 3000×g. Compounds (100 μM) were incubated with 20% hRBC (v/v) for 1 h at 37° C. and shaking at 300 rpm. The final erythrocyte concentration was approximately 0.9×10^9 cells/mL. A value of 0% and 100% cell lysis, respectively, was determined by incubation of hRBC in the presence of PBS containing 0.001% acetic acid and 2.5% Triton X-100 in H2O, respectively. The samples were centrifuged, the supernatants were 8-fold diluted in PBS buffer and the optical densities (OD) were measured at 540 nm. The 100% lyses value (OD540H2O) gave an OD540 of approximately 0.5-1.0.
Percent hemolysis was calculated as follows: (OD540peptide/OD540H2O)×100%.

T1 sequence (P61073 whole entry): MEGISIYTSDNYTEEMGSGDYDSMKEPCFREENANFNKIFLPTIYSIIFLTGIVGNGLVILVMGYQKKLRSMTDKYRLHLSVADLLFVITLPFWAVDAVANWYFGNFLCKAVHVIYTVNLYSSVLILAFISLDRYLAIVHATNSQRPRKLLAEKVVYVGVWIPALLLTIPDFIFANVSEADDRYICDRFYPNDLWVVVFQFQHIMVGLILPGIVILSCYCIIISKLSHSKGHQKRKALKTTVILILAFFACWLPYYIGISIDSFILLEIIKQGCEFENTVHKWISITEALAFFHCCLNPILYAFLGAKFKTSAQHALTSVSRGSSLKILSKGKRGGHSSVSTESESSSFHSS

Structure (SMILES)	IC50 (CXCR4 receptor) [µM]	GI50 at 48 h (in vitro; African green monkey) [µM]	GI50 at 48 h (in vitro; human) [µM]	Hemolysis at 100 μM [1] [%]
CC(C)NCCCC[C@@H]1NC(=O)[C@H](CCC(N)=O)NC(=O)[C@H](Cc2ccc(O)cc2)NC(=O)[C@@H]2CSSC[C@H](NC(=O)[C@H](Cc3ccc(O)cc3)NC(=O)[C@H](Cc3c[nH]cn3)NC(=O)[C@H](Cc3ccc(O)cc3)NC(=O)[C@@H]3CCCN3C(=O)[C@H]3CCCN3C1=O)C(=O)N[C@@H](CO)C(=O)NC1(CC1)C(=O)N1CCC[C@@H]1C(=O)N[C@@H](CCCNC(C)C)C(=O)N[C@@H](CCCNC(=N)N)C(=O)N[C@@H](Cc1ccc(O)cc1)C(=O)N2 [Ex. 2, cyclo(-Tyr^1-His^2-Tyr^3-Cys^4-Ser^5-Acc^6-^DPro^7-Orn(iPr)^8-Arg^9-Tyr^10-Cys^11-Tyr^12-Gln^13-Lys(iPr)^14-^DPro^15-Pro^16-), disulfide bond between Cys^4 and Cys^11] (cyclo(YHYCS[Ac3c][dP][Orn(iPr)]RYCYQ[Lys(iPr)][dP]P); disulfide 4-11)	0.00032 ± 0.0001	> 50	> 34	1.0
CC(C)NCCCC[C@@H]1NC(=O)[C@H](CCC(N)=O)NC(=O)[C@H](Cc2ccc(O)cc2)NC(=O)[C@@H]2CSSC[C@H](NC(=O)[C@H](Cc3ccc(O)cc3)NC(=O)[C@H](Cc3c[nH]cn3)NC(=O)[C@H](Cc3ccc(O)cc3)NC(=O)[C@@H]3CCCN3C(=O)[C@@H](CCCCNC(C)C)NC1=O)C(=O)N[C@@H](CO)C(=O)N[C@@H](C)C(=O)N1CCC[C@@H]1C(=O)N[C@@H](CCCNC(C)C)C(=O)N[C@@H](CCCNC(=N)N)C(=O)N[C@@H](Cc1ccc(O)cc1)C(=O)N2 [Ex. 1, cyclo(-Tyr^1-His^2-Tyr^3-Cys^4-Ser^5-Ala^6-^DPro^7-Orn(iPr)^8-Arg^9-Tyr^10-Cys^11-Tyr^12-Gln^13-Lys(iPr)^14-^DLys(iPr)^15-Pro^16-), disulfide bond between Cys^4 and Cys^11] (cyclo(A[dP][Orn(iPr)]RYCYQ[Lys(iPr)][dLys(iPr)]PYHYCS); disulfide 6-15)	0.00017 ± 0.0001	> 50	> 42	1.0

— patent publication US10363284B2, “β-hairpin peptidomimetics” (POLYPHOR AG, priority 2012, dated 2019)
